Data published in patent publication US20230165812A1, “NOCICEPTOR NEURONS CONTROL CANCER IMMUNOSURVEILLANCE” (priority 2020, published 2023).
Entries after “also recorded” stand apart in the source; their conditions may differ. Like-named read-outs stand apart in the source and are kept apart here.

Assays:
B16F10 [1] = type: in vivo, mice; conditions: for reduction of B16F10 melanoma growth compared with vehicle / reduction of tumor weight compared with vehicle: B16F10-bearing mice; for reduction of B16F10 melanoma growth compared with vehicle: QX-314 0.3% daily i.d. surrounding the tumor, BIBN4096 systemically once every two days (5 mg/kg i.p.); for reduction of tumor weight compared with vehicle: QX-314 0.3% daily i.d., BIBN4096 5 mg/kg i.p.
[2] = tested on: tumor-infiltrating CD8+ and CD4+ T-cells; type: in vivo, mice; conditions: for reduction of the proportion of PD1+Lag3+Tim3+ CD8+ T-cells: intra-tumoral, QX-314 0.3% daily i.d.
B16F10 [3] = type: in vivo, mice
B16F10 cells = type: cell-based, mouse; conditions: BIBN4096 1-4 μM
B16F10 [4] = tested on: B16F10; design: species or system mice; conditions: mouse, in vivo
[5] = tested on: tumor-infiltrating CD8 and CD4 T cells; type: in vivo, mice
CGRP receptor = CGRP receptor (Mus musculus, UniProt Q9R1W5+Q9WTJ5); conditions: in vivo; cited from earlier work
CGRP receptor, sequence (Q9R1W5 25-463): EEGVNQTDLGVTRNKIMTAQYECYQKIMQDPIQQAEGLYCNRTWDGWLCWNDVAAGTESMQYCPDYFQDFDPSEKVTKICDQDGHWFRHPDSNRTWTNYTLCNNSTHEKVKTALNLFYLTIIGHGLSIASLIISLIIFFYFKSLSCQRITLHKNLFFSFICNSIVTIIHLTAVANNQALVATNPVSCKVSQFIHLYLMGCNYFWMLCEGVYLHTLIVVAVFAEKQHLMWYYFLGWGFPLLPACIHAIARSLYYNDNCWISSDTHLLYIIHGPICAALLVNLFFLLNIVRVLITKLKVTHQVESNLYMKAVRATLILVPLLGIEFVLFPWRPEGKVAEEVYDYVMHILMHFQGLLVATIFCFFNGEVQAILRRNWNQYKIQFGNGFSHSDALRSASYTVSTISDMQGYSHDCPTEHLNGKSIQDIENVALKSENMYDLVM
CGRP receptor, sequence (Q9WTJ5 27-148): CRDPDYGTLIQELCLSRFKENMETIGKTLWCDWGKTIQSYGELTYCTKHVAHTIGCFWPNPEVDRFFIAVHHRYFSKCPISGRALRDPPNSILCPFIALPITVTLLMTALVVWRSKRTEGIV

CGRP = tested on: CGRP; design: species or system mice; conditions: capsaicin 1 μM; 3 h
[6] = tested on: cytotoxic CD8+ T-cells co-cultured with DRG neurons; experiment: DRG neuron / cytotoxic CD8+ T-cell co-culture; type: cell-based, mice; conditions: for INFγ+ CD8+ T-cells in co-culture with DRG neurons / TNFα+ CD8+ T-cells in co-culture with DRG neurons / proportion of PD1+Lag3+Tim3+ CD8+ T-cells in co-culture with DRG neurons: neuron stimulation, 48 h co-culture
Procedure: Naïve DRG neurons (1×10^4) were seeded in T cell media (supplemented with 0.05 ng/μL NGF (Life Technologies, #13257-019), 0.002 ng/μL GDNF (Peprotech, #450-51-10), and co-cultured with Tc1 CD8 T cells (1×10^5) in presence of IL-2 (575408). In some instances, co-cultures were stimulated with either of capsaicin (300 nM, twice/day) or KCl (40 mM). After 48 h, the cells were collected by centrifugation (5 min at 1300 rpm), stained and immunophenotyped by flow cytometry.

[7] = tested on: cytotoxic CD8+ T-cells co-cultured with DRG neurons; experiment: DRG neuron / cytotoxic CD8+ T-cell co-culture; type: cell-based, mice; conditions: capsaicin without neurons

For CC[N+](CC)(CC)CC(=O)Nc1c(C)cccc1C [QX-314], which “reduction of B16F10 melanoma growth compared with vehicle” value (B16F10 [1]) is on record?
Its value is about 3.3 fold.

And the “reduction of tumor weight compared with vehicle” value (B16F10 [1])?
Its value is about 5.2 fold.

What about the “reduction of the proportion of PD1+Lag3+Tim3+ CD8+ T-cells” value ([2]; BIBN4096 5 mg/kg i.p.) of the same compound?
The value was about 15 fold.

What about the “rate at which vehicle exposed mice succumb relative to treated mice” value (B16F10 [3]; B16F10-bearing mice, p≤0.0001) of the same compound?
Its value is 2.7 fold.

What about the “hazard ratio (survival)” value (B16F10 [3]; mouse, in vivo) of the same compound?
Its value is 0.37.

And the “IL2+ cultured cytotoxic CD8+ T-cells” value (cytotoxic CD8+ T-cells)?
The value was “do not impact”.

What about the “INFγ+ cultured cytotoxic CD8+ T-cells” value (cytotoxic CD8+ T-cells) of the same compound?
Its value is “do not impact”.

And the “TNFα+ cultured cytotoxic CD8+ T-cells” value (cytotoxic CD8+ T-cells)?
The value was “do not impact”.

And the “proportion of PD1+Lag3+Tim3+ cultured cytotoxic CD8+ T-cells” value (cytotoxic CD8+ T-cells)?
Its value is “do not impact”.

What about the “survival of cultured cytotoxic CD8+ T-cells” value (cytotoxic CD8+ T-cells) of the same compound?
Its value is “do not impact”.

For NCCCC[C@H](NC(=O)[C@@H](Cc1cc(Br)c(O)c(Br)c1)NC(=O)N1CCC(N2Cc3ccccc3NC2=O)CC1)C(=O)N1CCN(c2ccncc2)CC1 [BIBN4096], which “reduction of B16F10 melanoma growth compared with vehicle” value (B16F10 [1]) is on record?
The value was about 1.5 fold.

And the “reduction of tumor weight compared with vehicle” value (B16F10 [1])?
The value was about 1.9 fold.

And the B16F10 tumor growth (B16F10 [1]; mouse, in vivo, ip, 5 mg/kg)?
Its B16F10 tumor growth is “decreased”.

What about the B16F10 tumor volume (B16F10 [1]; mouse, in vivo, ip, 5 mg/kg) of the same compound?
Its B16F10 tumor volume is “decreased”.

And the B16F10 tumor weight (B16F10 [1]; mouse, in vivo, ip, 5 mg/kg)?
The B16F10 tumor weight was “decreased”.

What about the “increase of intra-tumor number of INFγ+ CD8+ T-cells” value ([2]; BIBN4096 5 mg/kg i.p.) of the same compound?
The value was about 3 fold.

And the “increase of intra-tumor number of total CD8+ T-cells” value ([2]; BIBN4096 5 mg/kg i.p.)?
Its value is about 3 fold.

What about the “intra-tumoral number of Granzyme B+ CD4+ T-cells” value ([2]; BIBN4096 5 mg/kg i.p.) of the same compound?
The value was “increased”.

What about the “intra-tumoral number of INFγ+ CD4+ T-cells” value ([2]; BIBN4096 5 mg/kg i.p.) of the same compound?
The value was “increased”.

What about the “intra-tumoral number of TNFα+ CD4+ T-cells” value ([2]; BIBN4096 5 mg/kg i.p.) of the same compound?
Its value is “increased”.

And the “intra-tumoral proportion of PD1+ CD4+ T-cells” value ([2]; BIBN4096 5 mg/kg i.p.)?
The value was “decreased”.

What about the “intra-tumoral number of Granzyme B+ CD8+ T-cells” value ([2]; Example 1 dosing) of the same compound?
The value was “increased”.

What about the “intra-tumoral number of INFγ+ CD8+ T-cells” value ([2]; Example 1 dosing) of the same compound?
The value was “increased”.

And the “intra-tumoral number of TNFα+ CD8+ T-cells” value ([2]; Example 1 dosing)?
The value was “increased”.

What about the “intra-tumoral number of total CD8+ T-cells” value ([2]; Example 1 dosing) of the same compound?
Its value is “increased”.

And the “reduction of the proportion of PD1+Lag3+Tim3+ CD8+ T-cells” value ([2]; BIBN4096 5 mg/kg i.p.)?
Its value is about 2.5 fold.

What about the “intra-tumoral total CD4+ T-cells counts” value ([2]; mouse, in vivo) of the same compound?
Its value is “increased”.

And the “number/proportion of intra-tumor PD1+Lag3+Tim3+ CD8+ T-cells” value ([2]; mouse, in vivo, ip, 5 mg/kg)?
Its value is “decreased”.

And the “cultured B16F10 survival” value (B16F10 cells)?
Its value is “no impact”.

What about the B16F10 tumor growth (B16F10 [4]) of the same compound?
The B16F10 tumor growth was “reduced; also recorded: decreased”.

What about the B16F10 tumor volume (B16F10 [4]) of the same compound?
Its B16F10 tumor volume is “reduced”.

What about the B16F10 tumor weight (B16F10 [4]) of the same compound?
Its B16F10 tumor weight is “reduced”.

What about the “intra-tumor PD1+ CD8 T cells” value ([5]; BIBN 5 mg/kg) of the same compound?
Its value is “decreased”.

What about the “tumor infiltration of PD1+ CD4 T cells” value ([5]; BIBN 5 mg/kg i.d.) of the same compound?
Its value is “decreased”.

What about the “infiltration of INFγ+ CD8 T cells” value ([5]; Example 2 dosing) of the same compound?
Its value is “increasing; also recorded: enhanced”.

And the “total number of intra-tumoral CD4 T cells” value ([5]; Example 2 dosing)?
The value was “enhanced; also recorded: increased”.

What about the “tumor infiltration of INFγ+ CD4 T cells” value ([5]; Example 2 dosing) of the same compound?
The value was “increased”.

And the “tumor infiltration of TNFα+ CD4 T cells” value ([5]; Example 2 dosing)?
Its value is “decreased”.

What about the “tumor infiltration of TNFα+ CD8 T cells” value ([5]; Example 2 dosing) of the same compound?
The value was “increasing; also recorded: increased”.

What about the “tumor infiltration of Granzyme B+ CD4 T cells” value ([5]; mouse, in vivo) of the same compound?
Its value is “increased”.

What about the “tumor infiltration of Granzyme B+ CD8 T cells” value ([5]; mouse, in vivo) of the same compound?
The value was “increasing; also recorded: increased”.

What about the “IL2+ cultured cytotoxic CD8+ T-cells” value (cytotoxic CD8+ T-cells) of the same compound?
The value was “do not impact”.

And the “INFγ+ cultured cytotoxic CD8+ T-cells” value (cytotoxic CD8+ T-cells)?
Its value is “do not impact”.

What about the “TNFα+ cultured cytotoxic CD8+ T-cells” value (cytotoxic CD8+ T-cells) of the same compound?
Its value is “do not impact”.

And the “proportion of PD1+Lag3+Tim3+ cultured cytotoxic CD8+ T-cells” value (cytotoxic CD8+ T-cells)?
The value was “do not impact”.

And the “survival of cultured cytotoxic CD8+ T-cells” value (cytotoxic CD8+ T-cells)?
Its value is “do not impact”.

And the “effects of αCD3/αCD28 stimulation on CD8+ T-cells” value (cytotoxic CD8+ T-cells; BIBN4096 1-4 μM)?
Its value is “do not prevent”.

What about the “host anti-bacterial activity during microbe infection” value (CGRP receptor) of the same compound?
Its value is “rescues”.

Which results are given for COc1cc(CNC(=O)CCCC/C=C/C(C)C)ccc1O [capsaicin]?
CGRP levels in B16F10 tumor surrounding skin explant (CGRP): further enhanced; IL2+ CD8+ T-cells in co-culture with DRG neurons ([6]; capsaicin-challenge): decreased; proportion of PD1+ T cells in co-culture with DRG neurons ([6]; capsaicin-challenge): increases; INFγ+ CD8+ T-cells in co-culture with DRG neurons [6]: reduced; also recorded: decreased; TNFα+ CD8+ T-cells in co-culture with DRG neurons [6]: decreased; also recorded: reduced; proportion of PD1+Lag3+Tim3+ CD8+ T-cells in co-culture with DRG neurons [6]: increased; INFγ+ CD8+ T-cells in co-culture with DRG neurons ([6]; listed as Capsaicin): decreased; TNFα+ CD8+ T-cells in co-culture with DRG neurons ([6]; listed as Capsaicin): decreased; impact on CD8+ T-cells in the absence of neurons [7]: no measurable impact

What does the source list for [Cl-].[K+] [KCl, potassium chloride]?
INFγ+ CD8+ T-cells in co-culture with DRG neurons [6]: decreased; TNFα+ CD8+ T-cells in co-culture with DRG neurons [6]: decreased; proportion of PD1+Lag3+Tim3+ CD8+ T-cells in co-culture with DRG neurons [6]: increased
